Data from US20010056099A1, “Method of reducing morbidity and the risk of mortality” (priority 2000, published 2001).

How the values were obtained:
OVX rats [1] = assay: Ovariectomized rat model: serum osteocalcin by radioimmunoassay; format: in vivo; settings: daily for 4 weeks
Description: (§1) In women, estrogen deficiency during the menopause results in increased bone turnover leading to bone loss. Ovariectomy in rats produces estrogen deficiency and increased bone turnover leading to trabecular bone loss similar to that observed in post-menopausal women (Kalu, D. N., Bone and Mineral 1991;15:175; Frost, H. M., Jee W. S. S., Bone and Mineral 1992;18:227; Wronski, T. J., Yen, C-F, Cells Materials 1991 ;(suppl. 1):69). The OVX rat is thus an appropriate model to evaluate compounds for the prevention and treatment of post-menopausal osteoporosis. The ability of PPTN to inhibit estrogen deficiency bone loss was assessed in 5-month-old OVX rats, since ovariectomy causes significant bone loss in the lumbar vertebrae, proximal tibia, and distal femoral metaphyses (Ke, H. Z., et al., Endocrin 1995;136:2435; Chen, H. K., et al., J Bone Miner Res 1995;10:1256).
Five-month-old OVX female rats were treated with PPTN at oral doses of 0.733, 7.33, 73.3, and 733 μg/kg/day, or 17α-ethynyl estradiol (EE) at 30 μg/kg/day (10 rats per subgroup) daily for 4 weeks. […] The effects of PPTN on the following end points were determined: (a) serum osteocalcin, a biochemical marker of bone turnover, (b) bone mineral density of lumbar vertebrae and distal femoral metaphyses, (c) bone histomorphometry of fifth lumbar vertebral body and proximal tibial metaphyses. […]

OVX rats [2] = assay: Ovariectomized rat model: histomorphometry of proximal tibial metaphyses; format: in vivo; settings: 4 weeks
Description: as §1
(§2) Five-month-old OVX female rats were treated with PPTN at oral doses of 0.733, 7.33, 73.3, and 733 μg/kg/day, or 17α-ethynyl estradiol (EE) at 30 μg/kg/day (10 rats per subgroup) daily for 4 weeks. The oral treatment began 1 day after surgery. Groups of vehicle-treated sham rats (n=10) and vehicle-treated OVX rats (n=10) served as controls. Calcein at 10 mg/kg was injected s.c. to all rats 12 and 2 days before necropsy as a fluorochrome bone marker to measure bone dynamic histomorphometric parameters. The effects of PPTN on the following end points were determined: (a) serum osteocalcin, a biochemical marker of bone turnover, (b) bone mineral density of lumbar vertebrae and distal femoral metaphyses, (c) bone histomorphometry of fifth lumbar vertebral body and proximal tibial metaphyses.
In order to determine the effect of PPTN on long bone metaphyses, histomorphometric analyses were performed on the proximal tibiae.

OVX rats [3] = assay: Ovariectomized rat model: lumbar vertebral BMD by dual-energy X-ray absorptiometry; format: in vivo; settings: 4 weeks
Description: as §1, §2
The first to the sixth lumbar vertebrae from each rat were removed during necropsy. These were then scanned ex vivo using dual-energy X-ray absorptiometry. The scan images were analyzed, and bone area, bone mineral content (BMC), and bone mineral density (BMD) of whole lumbar vertebrae (WLV), and LV1 through LV6 were determined. […] The changes in BMC were similar to those observed in BMD. […]

OVX rats [4] = assay: Ovariectomized rat model: femoral BMD by dual-energy X-ray absorptiometry; format: in vivo; settings: 4 weeks
Description: as §1, §2
Using dual-energy X-ray absorptiometry, the right femur of each rat was scanned ex vivo. Bone mineral density (BMD) of the distal femoral metaphyses (second 0.5 cm from the distal end of femur) and the proximal femur (the first 0.5 cm from the proximal end of femur, which contains the femoral head, neck, and greater trochanter) was determined.

OVX rats [5] = assay: Ovariectomized rat model: bone histomorphometry of fifth lumbar vertebral body; format: in vivo; settings: 4 weeks; for OVX-induced increase in bone formation rate (BFR) / percent eroded surface (index of osteoclastic bone resorption) compared with sham controls: lumbar vertebra
Description: as §1, §2
In order to understand the cellular mechanism of bone-protective effects of PPTN at the tissue level, bone histomorphometric methods were used to determine the effects of PPTN on cancellous bone of the fifth lumbar vertebral body in OVX rats. Ovariectomy caused significant decreases in trabecular bone volume (trabecular bone area divided by marrow space area, expressed as percent) and trabecular number, and a significant increase in trabecular separation of the fifth lumbar vertebral body.

MDA-MB-231 cells = assay: Inhibition of in vitro human breast tumor cell growth (ER-negative line); format: cell-based; settings: MDA-MB-231 (ER-negative), 6 days incubation, direct cell counts
Method: The in vitro antiproliferative effects of (-)-cis-6-phenyl-5-[4-(2-pyrrolidin-1-yl-ethoxy)-phenyl]-5,6,7,8-tetrahydro-naphthalene-2-ol (PPTN) were tested using two types of human breast cancer cell lines: first, MCF-7 cells, which contain ER as well as progesterone receptors (PgR), and second, MDA-MB-231 cells, which lack ER and PgR, and enable the determination of an effect that is independent of the ER mechanism. The effect of PPTN on the growth of these different cell lines was determined by incubation of the cells with various compound concentrations for 6 days.
The antiproliferative effects were then determined by direct cell counts. PPTN inhibited the growth of the ER-positive cell line MCF-7.

[6] = PPTN at doses ≧7.33 μg/kg/day oral
[7] = PPTN at 73.3 or 733 μg/kg/day oral

C#C[C@]1(O)CC[C@H]2[C@@H]3CCc4cc(O)ccc4[C@H]3CC[C@@]21C [EE, 17α-ethynyl estradiol, reference compound]
OVX-induced increase in serum osteocalcin concentration (OVX rats [1]; EE 30 μg/kg/day oral): completely prevented | bone turnover rate in proximal tibial trabecular bone (OVX rats [2]; EE 30 μg/kg/day oral): did not differ from sham controls | osteoclast number per millimeter of bone surface and percent osteoclast surface compared with both sham and OVX controls (OVX rats [2]; EE 30 μg/kg/day oral, proximal tibia): significantly decreased | OVX-induced decrease in lumbar vertebral BMD (OVX rats [3]; EE 30 μg/kg/day oral): completely prevented | OVX-induced decrease in BMD of distal femoral metaphyses (OVX rats [4]; EE 30 μg/kg/day oral): prevented the decrease | proximal femoral BMD (OVX rats [4]; EE 30 μg/kg/day oral): had no effect | OVX-induced changes in trabecular bone volume, trabecular number and trabecular separation of fifth lumbar vertebral body (OVX rats [5]; EE 30 μg/kg/day oral): completely prevented | bone turnover rate, lumbar vertebra (OVX rats [5]; EE 30 μg/kg/day oral): did not differ from sham controls | trabecular number of fifth lumbar vertebral body compared with sham controls (OVX rats [5]; EE 30 μg/kg/day oral): significantly increased | OVX-induced increase in bone formation rate (BFR) (OVX rats [5]; EE 30 μg/kg/day oral): inhibited this increase | percent eroded surface (index of osteoclastic bone resorption) compared with sham controls (OVX rats [5]; EE 30 μg/kg/day oral): significantly decreased

Oc1ccc2c(c1)CC[C@H](c1ccccc1)[C@@H]2c1ccc(OCCN2CCCC2)cc1 [PPTN, (-)-cis-6-phenyl-5-[4-(2-pyrrolidin-1-yl-ethoxy)-phenyl]-5,6,7,8-tetrahydro-naphthalene-2-ol]
OVX-induced increase in serum osteocalcin concentration (OVX rats [1]; [6]): completely prevented | proximal tibial trabecular bone volume (OVX rats [2]; PPTN at 0.733 μg/kg/day oral): no significant effect | percent osteoclast surface compared with OVX controls (OVX rats [2]; PPTN at 0.733 μg/kg/day, proximal tibia): decreased significantly | osteoclast number per millimeter of bone surface and percent osteoclast surface compared with both sham and OVX controls (OVX rats [2]; PPTN at 7.33, 73.3, or 733 μg/kg/day oral, proximal tibia): significantly decreased | bone turnover rate in proximal tibial trabecular bone (OVX rats [2]; PPTN at doses of 7.33 to 733 μg/kg/day oral): did not differ from sham controls | proximal tibial trabecular bone volume compared with OVX controls (OVX rats [2]; [6]): significantly greater | lumbar vertebral BMD compared with both sham and OVX controls (OVX rats [3]; PPTN 73.3 μg/kg/day oral): increased significantly | OVX-induced decrease in lumbar vertebral BMD (OVX rats [3]; PPTN at all dose levels (0.733, 7.33, 73.3, 733 μg/kg/day oral)): completely prevented | inhibition of cell proliferation (MDA-MB-231 cells): did not inhibit cell proliferation | BMD of distal femoral metaphyses and proximal femur (OVX rats [4]; PPTN at 0.733 or 7.33 μg/kg/day oral): did not differ from OVX controls | OVX-induced decreases in BMD of distal femoral metaphyses and proximal femur (OVX rats [4]; [7]): completely prevented the decreases | ED50 in preserving lumbar vertebral cancellous bone mass and structure (OVX rats [5]; OVX rats, oral): less than 0.733 μg/kg/day | trabecular number of fifth lumbar vertebral body compared with sham controls (OVX rats [5]; [7]): significantly increased | bone turnover rate, lumbar vertebra (OVX rats [5]; PPTN at all dose levels, oral): did not differ from sham controls | OVX-induced increase in bone formation rate (BFR) (OVX rats [5]; PPTN at all dose levels, oral): inhibited this increase | percent eroded surface (index of osteoclastic bone resorption) compared with sham controls (OVX rats [5]; PPTN at all dose levels, oral): significantly decreased | OVX-induced changes in trabecular bone volume, trabecular number and trabecular separation of fifth lumbar vertebral body (OVX rats [5]; all doses of PPTN (0.733-733 μg/kg/day oral)): completely prevented
